# Patent US7612211B2, “Benzimidazole TRPV1 inhibitors” (Janssen Pharmaceutica N.V., priority 2006, dated 2009)
# Biological target: T1, hTRPV1 (Homo sapiens, UniProt Q8NER1)
# T1 construct: expressed in transfected cells; host or cells: HEK293
# Test: Human TRPV1 (hTRPV1) functional assay, FLIPR intracellular Ca2+, capsaicin challenge
# Type: cell-based
# Conditions: HEK293 cells expressing hTRPV1, capsaicin 0.030 μM challenge; for inhibition at 0.5 µM: test concentration of 0.5 μm, read-out: percent inhibition (symbol a); for inhibition at 0.2 µM: test concentration of 0.2 μm, read-out: percent inhibition (symbol b); for IC50: derived from a variety of test concentrations, read-out: IC50 value (symbol c)
# Experimental: The functional activity of the test compounds was determined by measuring changes in intracellular calcium concentration using a Ca^++-sensitive fluorescent dye and FLIPR™ technology. Increases in Ca^++ concentration were readily detected upon challenge with capsaicin.
# HEK293 cells expressing hTRPV1 were grown on poly-D-lysine coated 384 well black-walled plates (BD 354663) and 1 day later loaded with Calcium 3 Dye for 35 min at 37° C., 5% CO2 and then for 25 min at room temperature, and subsequently tested for agonist-induced increases in intracellular Ca^2+ levels using FLIPR™ technology. Cells were challenged with test compounds (at varying concentrations) and intracellular Ca^2+ was measured for 5 min prior to the addition of capsaicin to all wells to achieve a final concentration of 0.030 μM eliciting ˜80% maximal response.
# EC50 or IC50 values were determined from concentration-response studies, which were generated using the average of quadruplicate wells for each data point. The symbol “a” represents percent inhibition obtained at a test concentration of 0.5 μm; the symbol “b” represents percent inhibition obtained at a test concentration of 0.2 μm; the symbol “c” represents an IC50 value (nM) derived from a variety of test concentrations. The term “NA” means that the result is not applicable for a particular compound.
# T1 sequence (Q8NER1 whole entry): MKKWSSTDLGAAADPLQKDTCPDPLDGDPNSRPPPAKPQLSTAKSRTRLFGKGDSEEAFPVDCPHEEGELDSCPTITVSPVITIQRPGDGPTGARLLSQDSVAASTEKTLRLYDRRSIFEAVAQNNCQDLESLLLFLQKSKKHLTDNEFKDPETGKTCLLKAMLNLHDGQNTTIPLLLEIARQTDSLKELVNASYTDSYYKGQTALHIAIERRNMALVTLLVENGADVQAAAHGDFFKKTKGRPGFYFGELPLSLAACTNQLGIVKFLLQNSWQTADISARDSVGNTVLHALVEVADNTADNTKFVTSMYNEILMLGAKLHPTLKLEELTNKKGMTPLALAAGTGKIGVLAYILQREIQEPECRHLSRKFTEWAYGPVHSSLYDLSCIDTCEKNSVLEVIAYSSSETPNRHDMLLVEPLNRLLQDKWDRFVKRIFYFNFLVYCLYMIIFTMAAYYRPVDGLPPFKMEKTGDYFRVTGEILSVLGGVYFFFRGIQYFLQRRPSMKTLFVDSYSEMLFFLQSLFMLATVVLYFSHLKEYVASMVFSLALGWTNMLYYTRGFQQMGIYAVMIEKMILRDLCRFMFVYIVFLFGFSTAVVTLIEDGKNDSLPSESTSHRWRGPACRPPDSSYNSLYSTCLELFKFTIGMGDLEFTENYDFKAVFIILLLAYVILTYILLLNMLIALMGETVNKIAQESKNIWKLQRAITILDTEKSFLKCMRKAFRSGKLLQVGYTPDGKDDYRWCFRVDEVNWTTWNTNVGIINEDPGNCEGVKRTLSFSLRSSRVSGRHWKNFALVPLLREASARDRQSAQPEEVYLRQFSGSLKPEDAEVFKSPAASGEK
SMILES,inhibition at 0.5 µM [%],inhibition at 0.2 µM [%],IC50 [nM]
"CS(=O)(=O)c1ccccc1-c1ccc2[nH]c(COc3cc(F)c(F)c(F)c3)nc2c1 [Cpd 68, 5-(2-methanesulfonyl-phenyl)-2-(3,4,5-trifluoro-phenoxymethyl)-1H-benzoimidazole]",–,59,–
"CN(C)S(=O)(=O)c1ccccc1-c1ccc2[nH]c(COc3ccc(C4CC4)cc3)nc2c1 [Cpd 166, 2-[2-(4-cyclopropyl-phenoxymethyl)-1H-benzoimidazol-5-yl]-N,N-dimethyl-benzenesulfonamide]",–,98,7
"COC(=O)CCc1ccc(OCc2nc3cc(-c4ccccc4S(C)(=O)=O)ccc3[nH]2)cc1 [Cpd 88, 3-{4-[5-(2-methanesulfonyl-phenyl)-1H-benzoimidazol-2-ylmethoxy]-phenyl}-propionic acid methyl ester]",–,36,–
"CC(=O)c1ccc(OCc2nc3cc(-c4ccccc4S(N)(=O)=O)ccc3[nH]2)cc1 [Cpd 35, 2-[2-(4-acetyl-phenoxymethyl)-1H-benzoimidazol-5-yl]-benzenesulfonamide]",97,–,16
"CC(C)c1ccc(OCc2nc3cc(-c4ccccc4S(C)(=O)=O)ccc3[nH]2)cc1 [Cpd 77, 2-(4-isopropyl-phenoxymethyl)-5-(2-methanesulfonyl-phenyl)-1H-benzoimidazole]",–,100,3
"NS(=O)(=O)c1ccccc1-c1ccc2[nH]c(COc3ccc4ncccc4c3)nc2c1 [Cpd 37, 2-[2-(quinolin-6-yloxymethyl)-1H-benzoimidazol-5-yl]-benzenesulfonamide]",50,–,–
"NS(=O)(=O)c1ccccc1-c1ccc2[nH]c(COc3ccc(Cl)c(C(F)(F)F)c3)nc2c1 [Cpd 30, 2-[2-(4-chloro-3-trifluoromethyl-phenoxymethyl)-1H-benzoimidazol-5-yl]-benzenesulfonamide]",99,–,13
"CS(=O)(=O)c1ccccc1-c1ccc2[nH]c(COc3ccccc3C(F)(F)F)nc2c1 [Cpd 74, 5-(2-methanesulfonyl-phenyl)-2-(2-trifluoromethyl-phenoxymethyl)-1H-benzoimidazole]",–,60,–
"CS(=O)(=O)c1ccccc1-c1ccc2[nH]c(COc3ccccc3)nc2c1 [Cpd 53, 5-(2-methanesulfonyl-phenyl)-2-phenoxymethyl-1H-benzoimidazole]",–,17,–
"CS(=O)(=O)c1ccccc1-c1ccc2[nH]c(COc3ccc(F)c(C(F)(F)F)c3)nc2c1 [Cpd 72, 2-(4-fluoro-3-trifluoromethyl-phenoxymethyl)-5-(2-methanesulfonyl-phenyl)-1H-benzoimidazole]",–,96,30
"NS(=O)(=O)c1ccccc1-c1ccc2[nH]c(COc3ccc(F)c(C(F)(F)F)c3)nc2c1 [Cpd 12, 2-[2-(4-fluoro-3-trifluoromethyl-phenoxymethyl)-1H-benzoimidazol-5-yl]-benzenesulfonamide]",–,–,18
"Cc1ccc(OCc2nc3cc(-c4ccccc4S(C)(=O)=O)ccc3[nH]2)c(C)c1 [Cpd 89, 2-(2,4-dimethyl-phenoxymethyl)-5-(2-methanesulfonyl-phenyl)-1H-benzoimidazole]",–,90,52
"CNS(=O)(=O)c1ccccc1-c1ccc2[nH]c(COc3ccc(S(C)(=O)=O)cc3)nc2c1 [Cpd 19, 2-[2-(4-methanesulfonyl-phenoxymethyl)-1H-benzoimidazol-5-yl]-N-methyl-benzenesulfonamide]",100,–,8
"NS(=O)(=O)c1ccccc1-c1ccc2[nH]c(CSc3ccc(Cl)cc3)nc2c1 [Cpd 42, 2-[2-(4-chloro-phenylsulfanylmethyl)-1H-benzoimidazol-5-yl]-benzenesulfonamide]",–,93,75
"CS(=O)(=O)c1ccccc1-c1ccc2[nH]c(COc3cccc(F)c3)nc2c1 [Cpd 55, 2-(3-fluoro-phenoxymethyl)-5-(2-methanesulfonyl-phenyl)-1H-benzoimidazole]",–,20,–
"NS(=O)(=O)c1ccccc1-c1ccc2[nH]c(COc3ccc(F)cc3F)nc2c1 [Cpd 9, 2-[2-(2,4-difluoro-phenoxymethyl)-1H-benzoimidazol-5-yl]-benzenesulfonamide]",–,–,110
"NS(=O)(=O)c1ccccc1-c1ccc2[nH]c(COc3ccc(C4CC4)cc3)nc2c1 [Cpd 164, 2-[2-(4-cyclopropyl-phenoxymethyl)-1H-benzoimidazol-5-yl]-benzenesulfonamide]",–,97,25
"NS(=O)(=O)c1ccccc1-c1ccc2[nH]c(COc3ccc(F)c(F)c3F)nc2c1 [Cpd 14, 2-[2-(2,3,4-trifluoro-phenoxymethyl)-1H-benzoimidazol-5-yl]-benzenesulfonamide]",–,–,110
"CS(=O)(=O)Nc1ccccc1-c1ccc2[nH]c(COc3ccc(C4CC4)cc3)nc2c1 [Cpd 168, N-{2-[2-(4-cyclopropyl-phenoxymethyl)-1H-benzoimidazol-5-yl]-phenyl}-methanesulfonamide]",–,97,24
"NS(=O)(=O)c1ccccc1-c1ccc2[nH]c(COc3cccc(F)c3)nc2c1 [Cpd 4, 2-[2-(3-fluoro-phenoxymethyl)-1H-benzoimidazol-5-yl]-benzenesulfonamide]",67,–,–

# More lines, now with the values ahead:
inhibition at 0.5 µM [%],inhibition at 0.2 µM [%],IC50 [nM],SMILES
5,–,–,"COC(=O)c1ccc(-c2ccc3[nH]c(COc4ccc(C(F)(F)F)cc4)nc3c2)cc1 [Cpd 131, 4-[2-(4-trifluoromethyl-phenoxymethyl)-1H-benzoimidazol-5-yl]-benzoic acid methyl ester]"
–,4,–,"CS(=O)(=O)c1ccc(OCc2nc3cc(-c4ccccc4S(=O)(=O)CCO)ccc3[nH]2)cc1 [Cpd 162, 2-{2-[2-(4-methanesulfonyl-phenoxymethyl)-1H-benzoimidazol-5-yl]-benzenesulfonyl}-ethanol]"
–,38,–,"O=C(NCCO)c1ccccc1-c1ccc2[nH]c(COc3ccc(C(F)(F)F)cc3)nc2c1 [Cpd 152, N-(2-hydroxy-ethyl)-2-[2-(4-trifluoromethyl-phenoxymethyl)-1H-benzoimidazol-5-yl]-benzamide]"
13,–,–,"OCc1cccc(-c2ccc3[nH]c(COc4ccc(C(F)(F)F)cc4)nc3c2)c1 [Cpd 117, {3-[2-(4-trifluoromethyl-phenoxymethyl)-1H-benzoimidazol-5-yl]-phenyl}-methanol]"
–,93,68,"CS(=O)(=O)c1ccccc1-c1ccc2[nH]c(COc3cccc(C(F)(F)F)c3)nc2c1 [Cpd 75, 5-(2-methanesulfonyl-phenyl)-2-(3-trifluoromethyl-phenoxymethyl)-1H-benzoimidazole]"
5,–,–,"NS(=O)(=O)c1ccccc1-c1ccc2[nH]c(COc3ccc(C(F)(F)F)cn3)nc2c1 [Cpd 39, 2-[2-(5-trifluoromethyl-pyridin-2-yloxymethyl)-1H-benzoimidazol-5-yl]-benzenesulfonamide]"
85,–,24.3,"COC(=O)c1ccccc1-c1ccc2[nH]c(COc3ccc(C(F)(F)F)cc3)nc2c1 [Cpd 127, 2-[2-(4-trifluoromethyl-phenoxymethyl)-1H-benzoimidazol-5-yl]-benzoic acid methyl ester]"
9,–,–,"Oc1ccc(-c2ccc3[nH]c(COc4ccc(C(F)(F)F)cc4)nc3c2)cc1 [Cpd 121, 4-[2-(4-trifluoromethyl-phenoxymethyl)-1H-benzoimidazol-5-yl]-phenol]"
8,–,–,"CS(=O)(=O)Nc1cccc(-c2ccc3[nH]c(COc4ccc(C(F)(F)F)cc4)nc3c2)c1 [Cpd 102, N-{3-[2-(4-trifluoromethyl-phenoxymethyl)-1H-benzoimidazol-5-yl]-phenyl}-methanesulfonamide]"
–,31,–,"CC(C)(O)CNC(=O)c1ccccc1-c1ccc2[nH]c(COc3ccc(C(F)(F)F)cc3)nc2c1 [Cpd 153, N-(2-hydroxy-2-methyl-propyl)-2-[2-(4-trifluoromethyl-phenoxymethyl)-1H-benzoimidazol-5-yl]-benzamide]"
–,98,7,"CC(C)(O)C(=O)c1ccccc1-c1ccc2[nH]c(COc3ccc(C(F)(F)F)cc3)nc2c1 [Cpd 147, 2-hydroxy-2-methyl-1-{2-[2-(4-trifluoromethyl-phenoxymethyl)-1H-benzoimidazol-5-yl]-phenyl}-propan-1-one]"
21,–,–,"Nc1ccccc1-c1ccc2[nH]c(COc3ccc(C(F)(F)F)cc3)nc2c1 [Cpd 122, 2-[2-(4-trifluoromethyl-phenoxymethyl)-1H-benzoimidazol-5-yl]-phenylamine]"
8,–,–,"NS(=O)(=O)c1cccc(-c2ccc3[nH]c(COc4ccc(C(F)(F)F)cc4)nc3c2)c1 [Cpd 104, 3-[2-(4-trifluoromethyl-phenoxymethyl)-1H-benzoimidazol-5-yl]-benzenesulfonamide]"
10,–,–,"Cc1cccc(-c2ccc3[nH]c(COc4ccc(C(F)(F)F)cc4)nc3c2)c1 [Cpd 108, 5-m-tolyl-2-(4-trifluoromethyl-phenoxymethyl)-1H-benzoimidazole]"
